# Experimental data: patent US20010024809A1, “Compounds with an antioxidant activity, compositions useful as food integrators containing them and process for their preparation” (priority 2000, published 2001)
# Assay: Chemiluminescent antioxidant capacity in vitro (luminol/H2O2/p-iodophenol, peroxidase)
# Format: biochemical
# Conditions: for Time (min.) necessary for reaching 50% of the control light emission: water control; for light emission: concentration not given; for antioxidant activity in vitro compared with Trolox: same concentration, extinguishing time of the light emission
# Method: The antioxidant capacity “in vitro” of FPA and FPB compounds, extracted from Ajuga reptans, and “in vivo” of the serum of rats treated with these substances, was evaluated by means of a chemiluminescent method and compared with that of an analogous hydrosoluble product of vitamin E.
# The chemiluminescent reaction of luminol was used, which is oxidized by hydrogen peroxide (H2O2), generating unstable radicals which degenerate to their basic state emitting light. This reaction is catalyzed by peroxidase enzyme. A signal potentiator is also present in the system: p-iodophenol which increases the light emission, producing in turn radicals which degenerate emitting photons.
# The presence of substances with an antioxidant activity interrupts the chain of radicalic reactions, temporarily preventing light emission. The time and extinguishing degree of the emission of photons are in relation to the antioxidant capacity and concentration of the substances being tested.
# ECL reagent (luminol/H2O2/p-iodophenol) of Amersham International (Amersham, UK).
# […] (type VI-A, 1100 U/mg) of Sigma (St. Louis, Mo., U.S.A.).
# Samples relating to FPA and FPB molecules extracted from Ajuga reptans, were prepared in aqueous solution at different concentrations (5.0, 2.0, 1.0 and 0.5 μM) and compared with solutions, at equal concentrations, of Trolox, an analogous hydrosoluble product of tocopherol. The serum of rats treated with raw extract of Ajuga reptans by intravenous administration at a dosage of 200 mg/kg were diluted 1:20 with water and compared with the serum of a non-treated rat.
# Distilled water was used as control.
# The dosage was effected in black polystyrene cylinders (Dynatech Laboratories, Chantilly, Va., U.S.A.). The chemiluminescent mixture was prepared by adding 100 μl of a dilution 1:10,000 v/v (0.11 U/ml) of a stock solution of peroxidase (1 mg/ml in a Tris-HCl 0.1 M buffer, pH 8.6) to 5 ml of ECL reagent. The various dilutions of the samples were distributed in quadruple into the cylinders (50 μl/cylinder) and 100 μl of chemiluminescent mixture were added to each. The light emission was measured immediately using a Luminograph LB980 (EG&G Berthold, Bad Wildbad, Germany) and the chemiluminescent reaction kinetics was monitored for about 60 minutes. The light emission was measured in photons/sec/pixel and the data obtained are indicated in Table 1 and the graph of FIG. 1 enclosed, compared with the control (water) and references (Trolox or serum of a non-treated rat).
smiles,measurement,setting,value
COc1cc(C=CC(=O)OC2C(CO)OC(OCCc3ccc(O)c(O)c3)C(O)C2OC2OC(C)C(O)C(O)C2OC2OC(CO)C(O)C(O)C2O)ccc1O (stereo not shown) [FPB],Time (min.) necessary for reaching 50% of the control light emission,Concentration 0.5 μM,6 min
same,Time (min.) necessary for reaching 50% of the control light emission,Concentration 1 μM,29 min
same,Time (min.) necessary for reaching 50% of the control light emission,Concentration 2 μM,>60 min
same,Time (min.) necessary for reaching 50% of the control light emission,Concentration 5 μM,>60 min
same,light emission,Time 0 (min),31.8 photons/sec/pixel
same,light emission,Time 2 (min),0.3 photons/sec/pixel
same,light emission,Time 5 (min),0.2 photons/sec/pixel
same,light emission,Time 7 (min),0 photons/sec/pixel
same,light emission,Time 9 (min),0 photons/sec/pixel
same,light emission,Time 11 (min),0 photons/sec/pixel
same,light emission,Time 14 (min),0 photons/sec/pixel
same,light emission,Time 17 (min),0 photons/sec/pixel
same,light emission,Time 19 (min),0.1 photons/sec/pixel
same,light emission,Time 21 (min),0.4 photons/sec/pixel
same,light emission,Time 23 (min),1.1 photons/sec/pixel
same,light emission,Time 26 (min),1.8 photons/sec/pixel
same,light emission,Time 28 (min),2.6 photons/sec/pixel
same,light emission,Time 30 (min),3.5 photons/sec/pixel
same,light emission,Time 32 (min),5.1 photons/sec/pixel
same,light emission,Time 34 (min),7 photons/sec/pixel
same,light emission,Time 37 (min),6.6 photons/sec/pixel
same,light emission,Time 41 (min),7.6 photons/sec/pixel
same,light emission,Time 44 (min),8.6 photons/sec/pixel
same,light emission,Time 46 (min),8.9 photons/sec/pixel
same,light emission,Time 49 (min),9.6 photons/sec/pixel
same,light emission,Time 51 (min),10.3 photons/sec/pixel
same,light emission,Time 53 (min),10.9 photons/sec/pixel
same,light emission,Time 56 (min),11.4 photons/sec/pixel
same,light emission,Time 58 (min),12.1 photons/sec/pixel
same,light emission,Time 61 (min),12.7 photons/sec/pixel
same,antioxidant activity in vitro compared with Trolox,,"extremely high antioxidant activity in vitro, significantly higher than that of Trolox"
"Cc1c(C)c2c(c(C)c1O)CCC(C)(C(=O)O)O2 (racemic) [Trolox, (+/−)-6-hydroxy-2,5,7,8-tetramethylchroman-2-carbonsaeure, reference compound]",Time (min.) necessary for reaching 50% of the control light emission,Concentration 0.5 μM,1 min
same,Time (min.) necessary for reaching 50% of the control light emission,Concentration 1 μM,3 min
same,Time (min.) necessary for reaching 50% of the control light emission,Concentration 2 μM,6 min
same,Time (min.) necessary for reaching 50% of the control light emission,Concentration 5 μM,15 min
same,light emission,Time 0 (min),31.8 photons/sec/pixel
same,light emission,Time 2 (min),2.9 photons/sec/pixel
same,light emission,Time 5 (min),7.8 photons/sec/pixel
same,light emission,Time 7 (min),35.5 photons/sec/pixel
same,light emission,Time 9 (min),46.9 photons/sec/pixel
same,light emission,Time 11 (min),49.3 photons/sec/pixel
same,light emission,Time 14 (min),50.4 photons/sec/pixel
same,light emission,Time 17 (min),49.7 photons/sec/pixel
same,light emission,Time 19 (min),49.2 photons/sec/pixel
same,light emission,Time 21 (min),48.3 photons/sec/pixel
same,light emission,Time 23 (min),47.3 photons/sec/pixel
same,light emission,Time 26 (min),46.2 photons/sec/pixel
same,light emission,Time 28 (min),45.1 photons/sec/pixel
same,light emission,Time 30 (min),43.7 photons/sec/pixel
same,light emission,Time 32 (min),42.1 photons/sec/pixel
same,light emission,Time 34 (min),40.8 photons/sec/pixel
same,light emission,Time 37 (min),39.3 photons/sec/pixel
same,light emission,Time 41 (min),35.3 photons/sec/pixel
same,light emission,Time 44 (min),35 photons/sec/pixel
same,light emission,Time 46 (min),32.8 photons/sec/pixel
same,light emission,Time 49 (min),31.1 photons/sec/pixel
same,light emission,Time 51 (min),29.6 photons/sec/pixel
same,light emission,Time 53 (min),28.6 photons/sec/pixel
same,light emission,Time 56 (min),26.2 photons/sec/pixel
same,light emission,Time 58 (min),26.8 photons/sec/pixel
same,light emission,Time 61 (min),23.9 photons/sec/pixel
"C[C@@H]1O[C@@H](O[C@@H]2[C@@H](O)[C@H](OCCc3ccc(O)c(O)c3)O[C@H](CO)[C@H]2OC(=O)/C=C/c2ccc(O)c(O)c2)[C@H](O[C@@H]2O[C@H](CO)[C@H](O)[C@H](O)[C@H]2O)[C@H](O)[C@H]1O [FPA, teupolioside]",Time (min.) necessary for reaching 50% of the control light emission,Concentration 0.5 μM,13 min
same,Time (min.) necessary for reaching 50% of the control light emission,Concentration 1 μM,35 min
same,Time (min.) necessary for reaching 50% of the control light emission,Concentration 2 μM,>60 min
same,Time (min.) necessary for reaching 50% of the control light emission,Concentration 5 μM,>60 min
same,light emission,Time 0 (min),31.8 photons/sec/pixel
same,light emission,Time 2 (min),1.3 photons/sec/pixel
same,light emission,Time 5 (min),1.4 photons/sec/pixel
same,light emission,Time 7 (min),1 photons/sec/pixel
same,light emission,Time 9 (min),0.9 photons/sec/pixel
same,light emission,Time 11 (min),0.8 photons/sec/pixel
same,light emission,Time 14 (min),0.8 photons/sec/pixel
same,light emission,Time 17 (min),0.7 photons/sec/pixel
same,light emission,Time 19 (min),0.6 photons/sec/pixel
same,light emission,Time 21 (min),0.6 photons/sec/pixel
same,light emission,Time 23 (min),0.6 photons/sec/pixel
same,light emission,Time 26 (min),0.5 photons/sec/pixel
same,light emission,Time 28 (min),0.6 photons/sec/pixel
same,light emission,Time 30 (min),0.5 photons/sec/pixel
same,light emission,Time 32 (min),0.6 photons/sec/pixel
same,light emission,Time 34 (min),1.1 photons/sec/pixel
same,light emission,Time 37 (min),0.8 photons/sec/pixel
same,light emission,Time 41 (min),0.7 photons/sec/pixel
same,light emission,Time 44 (min),0.9 photons/sec/pixel
same,light emission,Time 46 (min),0.8 photons/sec/pixel
same,light emission,Time 49 (min),0.8 photons/sec/pixel
same,light emission,Time 51 (min),0.8 photons/sec/pixel
same,light emission,Time 53 (min),0.8 photons/sec/pixel
same,light emission,Time 56 (min),1.1 photons/sec/pixel
same,light emission,Time 58 (min),0.8 photons/sec/pixel
same,light emission,Time 61 (min),1.1 photons/sec/pixel
same,activity relative to that of Trolox,dosage of 1 μM,~12 times
same,antioxidant activity of FPA compared with FPB,in vitro,slightly higher activity with respect to the FPB compound
same,antioxidant activity in vitro compared with Trolox,,"extremely high antioxidant activity in vitro, significantly higher than that of Trolox"
